In publication PMC6048268, “Resveratrol Inhibits Key Steps of Steroid Metabolism in a Human Estrogen-Receptor Positive Breast Cancer Model: Impact on Cellular Proliferation” (Frontiers in Pharmacology, 2018):
Read-outs that look alike come from different tables or passages of the source.

Tests used:
E2 levels = test system: E2 levels; set-up: method as in El-Sayed and Bayan, 2015; conditions: mice, 4 mg/kg i.p. for 7 days; ref El-Sayed and Bayan, 2015; cited from earlier work
MCF-7 cells = test: Cell proliferation, Casy cell counting, MCF-7; type: cell-based, human
Method: MDA-MB-231 and MCF-7 breast cancer cells were purchased from the American Type Culture Collection (ATCC; Manassas, VA, United States) and routinely cultivated at 37°C (95% humidity and 5% CO2) in phenolred-free Dulbecco’s modified Eagle medium F-12 (DMEM/F-12), fortified with 1% PenStrep®-solution and 10% fetal bovine serum (Invitrogen; Thermo Fisher Scientific, Inc., Waltham, MA, United States). All experiments were performed during the exponential growth phase of both cell lines. For the experiments, cells were seeded in 6-well-plates at a density of 1.0 × 10^6 cells per well and allowed to attach for 24 h.
Prior to cell counting with a Casy® TT Cell Counter (OLS OMNI Life Science, Bremen, Germany), the supernatant medium was removed and cells were detached using 400 μl TrypLe® solution (Invitrogen). All experiments were performed in triplicate, and the data were reported as the means ± standard deviation of all values.

[1] = biological target: estrogen sulfation, S9 fractions from human liver; set-up: method as in Furimsky et al. (2008); conditions: ref Furimsky et al. (2008), read-out: Ki, inhibition of estrogen sulfation; cited from earlier work
[2] = test system: steroid metabolism in MCF-7 cells; test: Inhibition of steroid metabolism by RES in MCF-7 cells (LC–HRMS); conditions: for inhibition at 10 µM: Homo sapiens, MCF7, 48 h; for Ki: MCF-7, Dixon plot
Method: Briefly, cartridges were preconditioned with 2 × 1.0 ml acetonitrile and 3 × 1.0 ml ammonium acetate buffer (10 mM, pH = 5.0), and the samples were loaded onto the columns. After washing with 1 × 1.0 ml ammonium acetate buffer (10 mM, pH = 5.0) and 2 × 1.0 ml acetonitrile/ammonium acetate buffer (10 mM, pH 5.0) 10:90 (v/v), the analytes were eluted using 2 × 650 μl acetonitrile/ammonium acetate buffer (10 mM, pH = 5.0) 95:5 (v/v) and evaporated until dry. Subsequently, samples were reconstituted in 270 μl acetonitrile/ammonium acetate buffer (10 mM, pH = 5.0) 25:75 (v/v) and stored at -80°C until further LC–HRMS analysis.
After media collection, cell monolayers were washed five times with 2.0 ml DPBS, detached using 400 μl TrypLE® solution (37°C, 5 min), mixed with 600 μl DPBS and transferred into sample vials. Aliquots of these suspensions (100 μl each) were diluted and counted using the Casy® TT Cell Counter to determine the exact number of cells per sample well. The remaining cell suspensions (900 μl each) were gently centrifuged (1000 rpm, 8 min), and the supernatants were discarded. The cell pellets were subsequently resuspended in 100 μl aqueous ammonium acetate buffer (10 mM, pH = 5.0) and lysed by five freeze-thaw-cycles in liquid nitrogen (3 min each), followed by thawing at ambient temperature. Ammonium acetate buffer (1000 μl) was added, and the suspensions were centrifuged (14000 rpm, 5 min). Subsequently, the supernatants were concentrated using the same SPE protocol as described above. All processed samples were then stored at -80°C until further LC–HRMS analysis. For each condition, three biologically independent experiments were performed; the reported values represent the overall means ± SD of all values.
LC was performed with an UltiMate 3000 RSLC-series system coupled to a maXis HD ESI-Qq-TOF mass spectrometer (Bruker Corporation, Bremen, Germany). A Phenomenex Luna® 3 μm C18(2) 100 Å LC column (250 mm × 4.6 mm I.D.; Phenomenex, Inc., Torrance, CA, United States), preceded by a Hypersil® BDS-C18 guard column (5 μm, 10 mm × 4.6 mm I.D.; Thermo Fisher Scientific, Inc.) was used for the separation of the analytes at a flow rate of 1.0 ml/min and a temperature of 43°C. […] The ESI ion source settings were as follows: capillary voltage: -4.5 kV; dry gas flow rate: 8.0 l/min N2; nebulizer: 1.0 bar N2; and dry temperature: 200°C. The ion transfer parameters were set to 400 Vpp funnel RF and 300 Vpp multipole RF, the quadrupole ion energy was 8.0 eV, and the collision cell parameters were as follows: collision RF, 1100 Vpp; collision energy, 10.0 eV; transfer time, 38 μs; and pre-pulse storage, 18 μs. In the range of m/z 150–500, full-scan mass spectra were recorded.
The modes of inhibition were subsequently determined from Lineweaver–Burk plots, and the corresponding Ki values were calculated from Dixon plots using GraphPad Prism 6.0.

[3] = MCF-7, 100 μM RES, 100 nM DHEA, 48 h
[4] = MCF-7, 100 μM RES, 100 nM E1, 48 h

Compound: Oc1ccc(/C=C/c2cc(O)cc(O)c2)cc1 [RES, 3,5,4′-trihydroxy-trans-stilbene]
- increase in E2 levels (E2 levels): approximately twofold increase
- increase in cell counts on co-incubation (MCF-7 cells; 5 μM RES + 100 nM E1, 48 h, vs control without E1): twofold increase in cell counts
- cell number (MCF-7 cells; 5 μM RES, 48 h): 2.92 ± 0.16 × 10^6 cells
- effect on cellular proliferation (MCF-7 cells; 10 μM RES, 48 h): no effect
- cell number (MCF-7 cells; 100 μM RES, 48 h): 1.08 ± 0.11 × 10^6 cells
- Emax at 5 µM (MCF-7 cells; Homo sapiens, MCF7, 48 h, read-out: stimulation of cellular growth (maximal effect)): 21.2 ± 3.3%
- IC50 (MCF-7 cells; Homo sapiens, MCF7, MCF-7, 48 h, steroid-deprived, read-out: IC50 (inhibition of cell growth)): 37.4 ± 14.5 µM
- Ki [1]: 1.1 µM
- inhibition at 10 µM ([2]; read-out: inhibition of E1 sulfation): 91.6 ± 1.1%
- inhibition at 10 µM ([2]; read-out: inhibition of E2 sulfation): 90 ± 1%
- increase in AD concentrations [2, 3]: 141.0%
- increase in T levels [2, 3]: 305.9%
- reduction of mean formation of DHEA-S [2, 3]: 87.7%
- increase in unconjugated E2 concentrations [2, 4]: 101.6%
- reduction of mean formation of E1-S [2, 4]: 99.1%
- reduction of mean formation of E2-G [2, 4]: 89.7%
- reduction of mean formation of E2-S [2, 4]: 98.8%
- mode of inhibition of conjugate formation ([2]; MCF-7, Lineweaver–Burk and Dixon plots, all conjugates): non-competitive
- Ki ([2]; read-out: Ki, inhibition of DHEA-S formation, DHEA precursor): 13.2 ± 0.2 µM
- Ki ([2]; read-out: Ki, inhibition of E1-S formation, E1 precursor): 0.94 ± 0.03 µM
- Ki ([2]; read-out: Ki, inhibition of E2-G formation, E1 precursor): 7.92 ± 0.24 µM
- Ki ([2]; read-out: Ki, inhibition of E2-S formation, E1 precursor): 0.73 ± 0.07 µM
